The values that follow come from ChEMBL document CHEMBL1142913, “Novel synthesis of [1]-benzothiepino[5,4-b]pyridine-3-carbonitriles and their anti-inflammatory properties” (Bioorg Med Chem, 2007).

Data set [1] relates to Rattus norvegicus. The data set is described as follows: Antiinflammatory activity in Wistar Albino rat assessed as inhibition of carrageenan-induced paw oedema at 50 mg/kg, ip after 1 hr. Conditions: route intraperitoneal. The data set is classed as functional. On the technique in general: The carrageenan paw model is a standard test of acute inflammation.
Data set [2] deals with Rattus norvegicus. The data set is described as follows: Antiinflammatory activity in Wistar Albino rat assessed as inhibition of carrageenan-induced paw oedema at 50 mg/kg, ip after 2 hrs. The data set is classed as functional. The note with it: route intraperitoneal.
Data set [3] deals with Rattus norvegicus. The data set is described as follows: Antiinflammatory activity in Wistar Albino rat assessed as inhibition of carrageenan-induced paw oedema at 50 mg/kg, ip after 3 hrs. Type of data set: functional. The note with it: route intraperitoneal.
Data set [4] concerns Rattus norvegicus. The data set is described as follows: Antiinflammatory activity in Wistar Albino rat assessed as inhibition of carrageenan-induced paw oedema at 50 mg/kg, ip after 4 hrs. The data set is classed as functional. The note with it: route intraperitoneal.
The test system of data set [5] is Rattus norvegicus. The data set is described as follows: Antiinflammatory activity against carrageenan-induced paw oedema in Wistar Albino rat assessed as mean swelling paw volume at 50 mg/kg, ip after 1 hr. Type of data set: functional. The note with it: route intraperitoneal.
The test system of data set [6] is Rattus norvegicus. The data set is described as follows: Antiinflammatory activity against carrageenan-induced paw oedema in Wistar Albino rat assessed as mean swelling paw volume at 50 mg/kg, ip after 2 hrs. Type of data set: functional. Conditions: route intraperitoneal.
The subject of data set [7] is Rattus norvegicus. The data set is described as follows: Antiinflammatory activity against carrageenan-induced paw oedema in Wistar Albino rat assessed as mean swelling paw volume at 50 mg/kg, ip after 3 hrs. The note with it: route intraperitoneal. Type of data set: functional.
Data set [8] deals with Rattus norvegicus. The data set is described as follows: Antiinflammatory activity against carrageenan-induced paw oedema in Wistar Albino rat assessed as mean swelling paw volume at 50 mg/kg, ip after 4 hrs. Type of data set: functional. The note with it: route intraperitoneal.
Data set [9] relates to Rattus norvegicus. The data set is described as follows: Antiinflammatory activity in Wistar Albino rat assessed as inhibition of carrageenan-induced paw oedema at 5 mg/kg, ip after 1 hr. Type of data set: functional. Conditions: route intraperitoneal.
Data set [10] deals with Rattus norvegicus. The data set is described as follows: Antiinflammatory activity in Wistar Albino rat assessed as inhibition of carrageenan-induced paw oedema at 5 mg/kg, ip after 2 hrs. The data set is classed as functional. The note with it: route intraperitoneal.
In data set [11] the test system is Rattus norvegicus. The data set is described as follows: Antiinflammatory activity in Wistar Albino rat assessed as inhibition of carrageenan-induced paw oedema at 5 mg/kg, ip after 3 hrs. The data set is classed as functional. Conditions: route intraperitoneal.
In data set [12] the test system is Rattus norvegicus. The data set is described as follows: Antiinflammatory activity in Wistar Albino rat assessed as inhibition of carrageenan-induced paw oedema at 5 mg/kg, ip after 4 hrs. Type of data set: functional. Conditions: route intraperitoneal.
The test system of data set [13] is Rattus norvegicus. The data set is described as follows: Antiinflammatory activity against carrageenan-induced paw oedema in Wistar Albino rat assessed as mean swelling paw volume at 5 mg/kg, ip after 1 hr. Type of data set: functional. The note with it: route intraperitoneal.
In data set [14] the test system is Rattus norvegicus. The data set is described as follows: Antiinflammatory activity against carrageenan-induced paw oedema in Wistar Albino rat assessed as mean swelling paw volume at 5 mg/kg, ip after 2 hrs. Type of data set: functional. Conditions: route intraperitoneal.
The subject of data set [15] is Rattus norvegicus. The data set is described as follows: Antiinflammatory activity against carrageenan-induced paw oedema in Wistar Albino rat assessed as mean swelling paw volume at 5 mg/kg, ip after 3 hrs. The data set is classed as functional. The note with it: route intraperitoneal.
The test system of data set [16] is Rattus norvegicus. The data set is described as follows: Antiinflammatory activity against carrageenan-induced paw oedema in Wistar Albino rat assessed as mean swelling paw volume at 5 mg/kg, ip after 4 hrs. The data set is classed as functional. Conditions: route intraperitoneal.
The test system of another data set is Mus musculus. The data set is described as follows: Toxicity in intraperitoneally dosed Albino mouse after 24 hrs. Type of data set: organism-based. The note with it: in vivo, ip.

`COc1nc2c(c(-c3ccc(Cl)cc3)c1C#N)CCSc1ccccc1-2`: the inhibition in vivo at 50 mg/kg with Rattus norvegicus [1] was found to be 63.1%; in the data set on Rattus norvegicus [2], 74.7%; with Rattus norvegicus [3], 79.8%; with Rattus norvegicus [4] it was 75.3%. Further, the Activity in the data set on Rattus norvegicus [5] was determined as 0.223 mL; with Rattus norvegicus [6] it was 0.283 mL; with Rattus norvegicus [7] it was 0.277 mL; with Rattus norvegicus [8] it was 0.396 mL.
As to `COc1ccc2c(c1)c(CC(=O)O)c(C)n2C(=O)c1ccc(Cl)cc1` [INDOMETHACIN], the inhibition in vivo at 5 mg/kg with Rattus norvegicus [9] came out at 71.1%; with Rattus norvegicus [10] it was 82.6%; in the data set on Rattus norvegicus [11], 66.4%; with Rattus norvegicus [12], 82.6%. In addition, the Activity came to 0.175 mL in the data set on Rattus norvegicus [13], 0.195 mL in the data set with Rattus norvegicus [14], 0.46 mL in the data set with Rattus norvegicus [15] and 0.278 mL in the data set with Rattus norvegicus [16].
For `C1CCNCC1.COc1ccc(-c2c(C#N)c(S)[nH]c(=S)c2C#N)cc1.O`, the inhibition in vivo at 50 mg/kg in the data set with Rattus norvegicus [1] is 9.4%; in the data set on Rattus norvegicus [2] it was 47%; with Rattus norvegicus [3] it was 57%; with Rattus norvegicus [4] it was 58.9%. For the same molecule, the Activity stood at 0.548 mL in the data set with Rattus norvegicus [5], 0.594 mL with Rattus norvegicus [6], 0.588 mL with Rattus norvegicus [7] and 0.658 mL in the data set with Rattus norvegicus [8].
Consider `CCOc1nc2c(c(-c3ccc(Cl)cc3)c1C#N)CCSc1ccccc1-2`, for which the inhibition in vivo at 50 mg/kg worked out at 81.3% with Rattus norvegicus [1], 87.7% in the data set on Rattus norvegicus [2], 88.5% in the data set with Rattus norvegicus [3] and 86.8% in the data set with Rattus norvegicus [4]. Moreover, the Activity entry in the data set with Mus musculus is “Non-toxic”; with Rattus norvegicus [5] it was 0.113 mL; in the data set on Rattus norvegicus [6], 0.138 mL; in the data set with Rattus norvegicus [7], 0.158 mL; with Rattus norvegicus [8], 0.212 mL.
Take `N#Cc1c(-c2ccc(Br)cc2)c2c([nH]c1=S)-c1ccccc1SCC2`: the inhibition in vivo at 50 mg/kg in the data set on Rattus norvegicus [1] came to 38%; in the data set on Rattus norvegicus [2], 56.7%; in the data set with Rattus norvegicus [3], 63.8%; with Rattus norvegicus [4] it was 69.7%. The Activity was found to be 0.375 mL in the data set on Rattus norvegicus [5], 0.485 mL with Rattus norvegicus [6], 0.495 mL in the data set on Rattus norvegicus [7] and 0.485 mL in the data set with Rattus norvegicus [8].
On to `C1COCCN1.COc1ccc(-c2c(C#N)c(S)[nH]c(=S)c2C#N)cc1.O`, for which the inhibition in vivo at 50 mg/kg worked out at 30.6% in the data set with Rattus norvegicus [1], 55.5% with Rattus norvegicus [2], 67.8% in the data set on Rattus norvegicus [3] and 66.5% in the data set with Rattus norvegicus [4]. Also, the Activity with Rattus norvegicus [5] turned out to be 0.42 mL; with Rattus norvegicus [6], 0.498 mL; with Rattus norvegicus [7], 0.44 mL; in the data set on Rattus norvegicus [8], 0.536 mL.
`COc1nc2c(c(-c3ccco3)c1C#N)CCSc1ccccc1-2`: the inhibition in vivo at 50 mg/kg in the data set on Rattus norvegicus [1] is 79.5%; in the data set on Rattus norvegicus [2], 51.1%; in the data set on Rattus norvegicus [3], 58.2%; with Rattus norvegicus [4], 68.3%. The Activity in the data set with Rattus norvegicus [5] was determined as 0.124 mL; in the data set with Rattus norvegicus [6], 0.548 mL; with Rattus norvegicus [7], 0.572 mL; in the data set with Rattus norvegicus [8], 0.508 mL.
For `CCOc1nc2c(c(-c3ccc(OC)cc3)c1C#N)CCSc1ccccc1-2`, the inhibition in vivo at 50 mg/kg in the data set on Rattus norvegicus [1] came to 62%; in the data set on Rattus norvegicus [2] it was 79.5%; in the data set on Rattus norvegicus [3], 90.6%; with Rattus norvegicus [4], 87.5%. Also, the Activity result in the data set with Mus musculus was “Non-toxic”; in the data set with Rattus norvegicus [5] it was 0.23 mL; in the data set with Rattus norvegicus [6], 0.23 mL; in the data set on Rattus norvegicus [7] it was 0.128 mL; in the data set with Rattus norvegicus [8], 0.2 mL.
On to `COc1nc2c(c(-c3cccs3)c1C#N)CCSc1ccccc1-2`, for which the inhibition in vivo at 50 mg/kg stood at 55.4% with Rattus norvegicus [1], 60.1% in the data set on Rattus norvegicus [2], 56.1% in the data set with Rattus norvegicus [3] and 56.6% with Rattus norvegicus [4]. The Activity in the data set with Rattus norvegicus [5] came out at 0.27 mL; in the data set with Rattus norvegicus [6] it was 0.447 mL; in the data set on Rattus norvegicus [7], 0.6 mL; in the data set with Rattus norvegicus [8], 0.695 mL.
Consider `COc1nc2c(c(-c3ccccc3)c1C#N)CCSc1ccccc1-2`, for which the inhibition in vivo at 50 mg/kg in the data set with Rattus norvegicus [1] is 54%; in the data set with Rattus norvegicus [2], 61%; with Rattus norvegicus [3] it was 59.2%; with Rattus norvegicus [4], 80.9%. In addition, the Activity was determined as 0.278 mL with Rattus norvegicus [5], 0.437 mL in the data set on Rattus norvegicus [6], 0.558 mL with Rattus norvegicus [7] and 0.305 mL in the data set with Rattus norvegicus [8].
With `COc1ccc(-c2c3c([nH]c(=S)c2C#N)-c2ccccc2SCC3)cc1`, the inhibition in vivo at 50 mg/kg is 54.5% in the data set on Rattus norvegicus [1], 68.3% with Rattus norvegicus [2], 63.5% in the data set with Rattus norvegicus [3] and 56.3% in the data set with Rattus norvegicus [4]. The Activity in the data set with Rattus norvegicus [5] was 0.275 mL; in the data set on Rattus norvegicus [6] it was 0.355 mL; in the data set on Rattus norvegicus [7], 0.5 mL; in the data set with Rattus norvegicus [8], 0.7 mL.
In the case of `COc1ccc(-c2c(C#N)c(OC)nc3c2CCSc2ccccc2-3)cc1`, the inhibition in vivo at 50 mg/kg in the data set with Rattus norvegicus [1] was 58.7%; with Rattus norvegicus [2], 81.9%; in the data set with Rattus norvegicus [3], 87%; with Rattus norvegicus [4], 85.1%. Besides, the Activity result in the data set on Mus musculus was “Non-toxic”; in the data set on Rattus norvegicus [5], 0.25 mL; with Rattus norvegicus [6], 0.203 mL; in the data set with Rattus norvegicus [7] it was 0.178 mL; in the data set on Rattus norvegicus [8], 0.238 mL.

A word on the inhibition in vivo: it is the change of the read-out against control, counted positive when it falls.
